What was measured:
[1] = test system: hVEGF; assay: Serum hVEGF ELISA in NOD/SCID mice with CSC-xenograft tumors; assay type: in vivo, mouse; details: CRC day 76 and NSCLC day 91, vs vehicle
Method: (§1) This analysis was performed on serum collected from the tumor model studies described in FIG. 18. Serum analysis was performed using high-sensitivity ELISA assay kits obtained from R&D systems. A.C. Serum from 3 mice at day 76 (CRC) (blue) and at day 91 (NSCLC) (red) was analyzed for hIL8 and hVEGF serum levels. Results are shown as bar graphs representing the mean cytokine concentration in pg/mL+/−SD from n=3 mice/group.
(§2) Three mice from each study group were sacrificed at day 76 (CRC) or day 91 (NSCLC). The tumors were excised, dissociated into single cells, and viably cryopreserved. Serum was also collected for cytokine detection. For the remaining mice Kineret treatment was stopped and the mice were further monitored for tumor growth. When tumors reached ethical tumor-burden limits the mice were sacrificed and tumor cells and serum were collected. […] From all sacrificed mice we also collected and cryopreserved bone marrow cells from the femur and tibial bones for possible analyses.

[2] = test system: primary NSCLC CSC-derived xenograft tumors; assay: CSC-xenograft tumor growth, NSCLC model in NOD/SCID mice; assay type: in vivo, mouse; details: 5 or 10 mg daily s.c., 91 days
Method: (§3) CSC were FACS-enriched from primary tumor-derived NSCLC and CRC cell line cultures on the basis ALDH activity as determined by the Aldefluor assay. 10^4 cells/mouse were transplanted s.c. in NOD/SCID mice together with Matrigel. A Loading dose of 5 μg/mL Kineret (recombinant […], Amgen) was applied to the Matrigel and subsequent daily treatment s.c. with either 5 or 10 mg Kineret was performed beginning on day 1 post transplantation. Tumor volumes were monitored weekly and three mice from each group were sacrificed at day 76 for the CRC model (A.) and at day 91 for the NSCLC model (B.) for further analysis. For the remaining animals Kineret treatment was stopped and tumor progression was continually monitored. When tumors reached >2000 mm^3 mice were sacrificed. At time of sacrifice serum was collected along for cytokine analysis. A. Tumor growth curves in the CRC tumor model study and B. growth curves in the NSLCL model study. Curves represent mean tumor volume in mm3 from 10 mice/group; error bars are SEM The data shown for each model is representative of n=2 similar experiments.
(§4) Human cell cultures derived from primary tumors obtained from a CRC (FIG. 12A) and a NSCLC (FIG. 12B) patient were sorted for the Aldeflour-positive population using fluorescence activated cell sorting (FACS). […]
(§5) Tumor volume was monitored weekly for 76 days in the CRC model and for 91 days in the NSCLC model.

[3] = Tolerability in NOD/SCID mice of the xenograft studies; assay type: in vivo; details: 5 and 10 mg daily s.c.
Excerpt: Human cell cultures derived from primary tumors obtained from a CRC (FIG. 12A) and a NSCLC (FIG. 12B) patient were sorted for the Aldeflour-positive population using fluorescence activated cell sorting (FACS). Aldefluor is a marker of high aldehyde-dehydrogenase activity, which is associated with both normal stem cell and CSC phenotypes. The sorted aldefluor-positive (AF+) cells were suspended in Matrigel and injected subcutaneously at a very low cell number (2×10^4 cells/mouse) into NOD/SCID immune-deficient mice. The matrigel suspensions contained a Kineret loading dose of 5 μg/mL which corresponds to reported serum levels of Kineret after daily s.c. dosing. Starting 1 day after inoculation of the AF+ cells, mice were treated daily with 5 mg or 10 mg of Kineret (purchased from Biovitrum) or the drug vehicle. The administration route was s.c. as is standard for Kineret in the clinic.
as §5

[4] = in vivo, sc; cited from earlier work
[5] = test system: primary CRC CSC-derived xenograft tumors; assay: CSC-xenograft tumor growth, CRC model in NOD/SCID mice; assay type: in vivo, mouse; details: 5 or 10 mg daily s.c., 76 days
Method: as §3, §4, §5

[6] = test system: hIL8; assay: Serum hIL8 ELISA in NOD/SCID mice with CSC-xenograft tumors; assay type: in vivo, mouse; details: CRC day 76 and NSCLC day 91, vs vehicle
Method: as §1, §2

Kineret: human IL1R-antagonist (IL1RA) marketed under the trade name Kineret, Amgen; approved for rheumatoid arthritis
hVEGF levels in mouse serum [1]: did not alter | inhibition of tumor growth [2]: response was only achieved with the higher dose of 10 mg/kg | tolerability [3]: well tolerated | reported serum levels after daily s.c. dosing [4]: 5 µg/mL | inhibition of tumor growth [5]: strong inhibition at both the 5 and 10 mg doses | hIL-8 levels in mouse serum [6]: reduced to undetectable levels
